Test results reported in patent US4122184A, “Benzimidazole insecticides” (priority 1977, dated 1978).
“And” between values parts separate entries of the source, which are not always exact repeats. Identical values can stand only once.

Columns and labels:
Mexican Bean Beetle = Mexican Bean Beetle Test; type: in vivo, Epilachna varivestis (Coleoptera); conditions: 48 h
How it was run: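 Snap bean leaves were sprayed on both surfaces with test formulation at a pre-determined level, dried, then infested with ten third-instar Mexican bean beetle larvae per leaf. Mortality (moribund counted as dead) and feeding were scored after 48 h on a rating scale. Malathion at 500 ppm served as reference.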

Two-spotted Spider Mite = Two-spotted Spider Mite test; type: in vivo, Tetranychus urticae (Acarina); conditions: 48 h
Procedure: The procedure in this test is the same as that in the previous aphid test, except that about 100 two-spotted spider mites from a stock colony raised on squash plants are transferred to a cut squash cotyledon. The mortality is estimated 48 hours after spraying. The same rating scale is used.

Milkweed Bug = Milkweed Bug Test; type: in vivo, Oncopeltis fasciatus (Hemiptera); conditions: 48 h
How it was run: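 Ten chilled adult milkweed bugs per cage sprayed with 5 ml test formulation at 10 psi, then fed and watered. Mortality, counting moribund as dead, scored 48 h after spraying; 500 ppm malathion as reference, unsprayed cages as controls.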

Oriental Cockroach = assay: Oriental Roach Test; type: in vivo, Blatta orientalis (Orthoptera); conditions: 24 h
How it was run: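 Ten late-instar (3-4 month) nymphs per cage, held at 70°-80° F., sprayed with 5 ml of insecticide formulation at a specified amount. Cockroaches kept unfed and unwatered; mortality counted 24 hours post-spray, with insects staying on the cage bottom after light shaking scored dead.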

Bean Leaf Beetle [1] = assay: Field trial, stomach poison test; type: in vivo
How it was run: (§1)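 Treated foliage (dipped, or sprayed at 10 psi, then dried) is offered to counted insects in dishes. Scoring of mortality uses a 0–9 scale at three time points up to 72 h.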

[2] = tested on: Southern Corn Rootworm Adults; assay: Field trial, stomach poison test; type: in vivo; design: key: mortality rating on a 0 to 9 scale
How it was run: as §1

[3] = tested on: Striped Cucumber Beetle Adults; assay: Field trial, stomach poison test; type: in vivo; design: key: mortality rating on a 0 to 9 scale
How it was run: as §1

Squash Bug Adults = assay: Field trial, contact poison test; type: in vivo; design: key: 0-9 rating: 0 = 0-10% mortality, 9 = 91-100% mortality
How it was run: (§2)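 Contact spray, atomizer 10 psi, arm's length, several concentrations; infested plants in water bottles, stems wrapped in cellucotton, plants spaced apart. Scored 24, 48, 72 h; scale 0–9 by percent mortality.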

Bean Leaf Beetle [4] = assay: Field trial, contact poison test; type: in vivo
How it was run: as §2

[5] = tested on: Red-Legged Grasshopper Adults; assay: Field trial, contact poison test; type: in vivo
How it was run: as §2

[6] = tested on: Southern Corn Rootworm Adults; assay: Field trial, contact poison test; type: in vivo
How it was run: as §2

Yellow Mealworm Larvae = assay: Field trial, topical application; type: in vivo; design: key: 0 = 0-10% mortality, 9 = 91-100% mortality (0-9 scale)
How it was run: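 1 μL benzimidazole solution of set microgram content applied topically to larvae or adults. Mortality read at 24, 48 and 72 h where applicable, rated 0-9 (0 = 0-10%, 9 = 91-100%); values are average mortality per concentration.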

CCCCCCOC(=O)n1c(C(F)(F)F)nc2c([N+](=O)[O-])cc(C(F)(F)F)cc21 [E, n-hexyl 2,6-bis(trifluoromethyl)-4-nitro-1-benzimidazolecarboxylate]
mortality rating (Mexican Bean Beetle; 5 ppm): 2.5
mortality rating (Mexican Bean Beetle; 10 ppm): 7.5
mortality rating (Two-spotted Spider Mite; 5 ppm): .5
mortality rating (Two-spotted Spider Mite; 10 ppm): 8.5
mortality rating (Milkweed Bug; 10 ppm): .5
mortality rating (Milkweed Bug; 25 ppm): 6.5
mortality rating (Milkweed Bug; 50 ppm): 1.5
mortality rating (Oriental Cockroach; 500 ppm): 8.5
average mortality rating (Bean Leaf Beetle [1]; 10 ppm): 0 (0-10 percent)
average mortality rating (Bean Leaf Beetle [1]; 25 ppm): 1
average mortality rating (Bean Leaf Beetle [1]; 50 ppm): 0 (0-10 percent)
average mortality rating ([2]; 25 ppm): 5
average mortality rating ([2]; 50 ppm): 5
average mortality rating ([2]; 100 ppm): 5
average mortality rating ([3]; 10 ppm): 3
average mortality rating ([3]; 25 ppm): 1
average mortality rating ([3]; 50 ppm): 5
average mortality rating ([3]; 100 ppm): 5
average mortality rating (Squash Bug Adults; 125 ppm): 0 (0-10 percent)
average mortality rating (Squash Bug Adults; 250 ppm): 2
average mortality rating (Squash Bug Adults; 500 ppm): 3
average mortality rating (Squash Bug Adults; 750 ppm): 6
average mortality rating (Bean Leaf Beetle [4]; 25 ppm): 0 (0-10 percent)
average mortality rating (Bean Leaf Beetle [4]; 50 ppm): 0 (0-10 percent)
average mortality rating (Bean Leaf Beetle [4]; 100 ppm): 8
average mortality rating ([5]; 10 ppm): 3
average mortality rating ([5]; 25 ppm): 8
average mortality rating ([5]; 50 ppm): 7
average mortality rating ([6]; 25 ppm): 4
average mortality rating ([6]; 50 ppm): 9 (91-100 percent mortality)
average mortality rating ([6]; 100 ppm): 8
average mortality rating (Yellow Mealworm Larvae; 0.03 μg/μl): 2
average mortality rating (Yellow Mealworm Larvae; 0.07 μg/μl): 3
average mortality rating (Yellow Mealworm Larvae; 0.15 μg/μl): 4

mixture of phenyl 2,6-bis(trifluoromethyl)-4-nitro-1-benzimidazolecarboxylate and phenyl 2,5-bis(trifluoromethyl)-1-benzimidazolecarboxylate
mortality rating (Mexican Bean Beetle; 10 ppm): 4 (41-50)
mortality rating (Mexican Bean Beetle; 25 ppm): 3 (31-40)
mortality rating (Mexican Bean Beetle; 50 ppm): 7 (71-80)
mortality rating (Mexican Bean Beetle; 100 ppm): 9 (91-100)
mortality rating (Mexican Bean Beetle; 250 ppm): 9 (91-100)
mortality rating (Mexican Bean Beetle; 500 ppm): 9 (91-100)
mortality rating (Mexican Bean Beetle; 1000 ppm): 9 (91-100)
mortality rating (Two-spotted Spider Mite; 10 ppm): 5.5
mortality rating (Two-spotted Spider Mite; 25 ppm): 2 (21-30)
mortality rating (Two-spotted Spider Mite; 50 ppm): 8 (81-90)
mortality rating (Two-spotted Spider Mite; 100 ppm): 9 (91-100)
mortality rating (Two-spotted Spider Mite; 250 ppm): 9 (91-100)
mortality rating (Two-spotted Spider Mite; 500 ppm): 9 (91-100)
mortality rating (Two-spotted Spider Mite; 1000 ppm): 9 (91-100)
mortality rating (Milkweed Bug; 250 ppm): 1 (11-20)
mortality rating (Milkweed Bug; 500 ppm): 9 (91-100)
mortality rating (Milkweed Bug; 1000 ppm): 9 (91-100)
mortality rating (Oriental Cockroach; 50 ppm): 0 (0-10)
mortality rating (Oriental Cockroach; 100 ppm): .5
mortality rating (Oriental Cockroach; 250 ppm): 7 (71-80)
mortality rating (Oriental Cockroach; 500 ppm): 6.5
mortality rating (Oriental Cockroach; 1000 ppm): 5 (51-60)
average mortality rating (Bean Leaf Beetle [1]; 10 ppm): 1
average mortality rating (Bean Leaf Beetle [1]; 25 ppm): 0 (0-10 percent)
average mortality rating (Bean Leaf Beetle [1]; 50 ppm): 0 (0-10 percent)
average mortality rating ([2]; 25 ppm): 2 and 3
average mortality rating ([2]; 50 ppm): 4 and 2
average mortality rating ([2]; 100 ppm): 6 and 8
average mortality rating ([3]; 10 ppm): 3
average mortality rating ([3]; 25 ppm): 4
average mortality rating ([3]; 50 ppm): 4
average mortality rating ([3]; 100 ppm): 7
average mortality rating (Squash Bug Adults; 125 ppm): 2
average mortality rating (Squash Bug Adults; 250 ppm): 2
average mortality rating (Squash Bug Adults; 500 ppm): 6
average mortality rating (Squash Bug Adults; 750 ppm): 8
average mortality rating (Bean Leaf Beetle [4]; 25 ppm): 0 (0-10 percent)
average mortality rating (Bean Leaf Beetle [4]; 50 ppm): 0 (0-10 percent)
average mortality rating (Bean Leaf Beetle [4]; 100 ppm): 4
average mortality rating ([5]; 25 ppm): 1
average mortality rating ([5]; 50 ppm): 7
average mortality rating ([6]; 25 ppm): 0 (0-10 percent)
average mortality rating ([6]; 50 ppm): 3
average mortality rating ([6]; 100 ppm): 7
average mortality rating (Yellow Mealworm Larvae; 0.03 μg/μl): 3
average mortality rating (Yellow Mealworm Larvae; 0.07 μg/μl): 3
average mortality rating (Yellow Mealworm Larvae; 0.15 μg/μl): 6
